{
  "source": "patent US20150203474A1",
  "about": "“SOLID FORMS COMPRISING INHIBITORS OF HCV NS5A, COMPOSITIONS THEREOF, AND USES THEREWITH” (PRESIDIO PHARMACEUTICALS ,INC., priority 2012, published 2015)",
  "key": {"[1]": {"tested_on": "HCV genotype 1a replicon", "test": "HCV replicon assay, GT 1a (luciferase readout)", "type": "cell-based", "conditions": "Hepatitis C virus; GT 1a replicon; n > 3", "method": "(§1) Biological activity of the compounds of the invention was determined using an HCV replicon assay. The 1b_Huh-Luc/Neo-ET cell line persistently expressing a bi-cistronic genotype 1b replicon in Huh 7 cells was obtained from ReBLikon GMBH. This cell line was used to test compound inhibition using luciferase enzyme activity readout as a measurement of compound inhibition of replicon levels.\n(§2) On Day 1 (the day after plating), each compound was added in triplicate to the cells. Plates incubated for 72 hrs prior to running the luciferase assay. Enzyme activity was measured using a Bright-Glo Kit (cat. number E2620) manufactured by Promega Corporation. The following equation was used to generate a percent control value for each compound.\n(§3) % Control=(Average Compound Value/Average Control)*100\n(§4) The EC50 value was determined using GraphPad Prism and the following equation:\n(§5) Y=Bottom+(Top−Bottom)/(1+10̂((LogIC50−X)*HillSlope))\n(§6) EC50 values of compounds are repeated several times in the replicon assay.\n(§7) The disclosed compounds can inhibit multiple genotypes of HCV including, but not limited to 1a, 1b, 2a, 3a, 4a and 5a. The EC50s are measured in the corresponding replicon assays that are similar to HCV 1b replicon assay as described above."}, "[2]": {"tested_on": "bi-cistronic genotype 1b replicon in Huh 7 cells (1b_Huh-Luc/Neo-ET cell line)", "test": "HCV replicon assay, GT 1b (luciferase readout)", "type": "cell-based", "conditions": "Hepatitis C virus, GT 1b replicon, n > 3", "method": "as §1, §2, §3, §4, §5, §6"}, "[3]": {"tested_on": "HCV genotype 2a replicon", "test": "HCV replicon assay, GT 2a (luciferase readout)", "type": "cell-based", "conditions": "Hepatitis C virus; GT 2a replicon; n > 3", "method": "as §1, §2, §3, §4, §5, §6, §7"}, "[4]": {"tested_on": "HCV genotype 3a replicon", "test": "HCV replicon assay, GT 3a (luciferase readout)", "type": "cell-based", "conditions": "Hepatitis C virus; GT 3a replicon; n > 3", "method": "as §1, §2, §3, §4, §5, §6, §7"}, "[5]": {"tested_on": "HCV genotype 4a replicon", "test": "HCV replicon assay, GT 4a (luciferase readout)", "type": "cell-based", "conditions": "Hepatitis C virus; GT 4a replicon; n > 3", "method": "as §1, §2, §3, §4, §5, §6, §7"}, "[6]": {"tested_on": "HCV genotype 5a replicon", "test": "HCV replicon assay, GT 5a (luciferase readout)", "type": "cell-based", "conditions": "Hepatitis C virus; GT 5a replicon; n > 3", "method": "as §1, §2, §3, §4, §5, §6, §7"}, "[7]": {"test": "Moisture sorption profile (DVS) of Compound II Form I and amorphous Compound II", "type": "physicochemical", "conditions": "DVS at 25° C.", "method": "The moisture sorption profile was generated of the sample as well as of a sample of amorphous Compound II at 25° C. using a DVS Moisture Balance Flow System (Model Advantage) with the following conditions: sample size approximately 10 mg, drying 25° C. for 60 minutes, adsorption range 0% to 95% RH, desorption range 95% to 0% RH, and step interval 5%. The equilibrium criterion was <0.01% weight change in 5 minutes for a maximum of 120 minutes."}, "[8]": {"test": "Solubility of Form I and free base compound 4-3 (visual and HPLC assay of filtrate)", "type": "physicochemical", "conditions": "for pH (Filtrated): filtrate of solubility sample; for HPLC Solubility / Visual Solubility (observation in words) / solubility at 24 h: target conc. 2.0 mg/mL; for HPLC Solubility / solubility at 24 h: 24 hours ambient, 0.45-μm filtrate; for solubility at 24 h: thermodynamic from solid, read-out: HPLC Solubility", "method": "Solubility of Form I as well as the free base compound 4-3 was tested. Solubility was measured by placing a small quantity of the compound to be analyzed in a glass vial, capping and rotating the vial overnight at ambient conditions (24 hours). Target concentration was 2.0 mg/mL. The samples were filtrated with 0.45-μm filters. The subsequent filtrate was collected for HPLC assay. HPLC conditions are shown in Table 10 in Appendix A. Solubility for Form I is shown in Table 11 and for the free base compound 4-3 is shown in Table 12 in Appendix A. [table]"}},
  "note": "Where two headings read alike, the source gives them in different places.",
  "data": [
    {"smiles": "CC[C@H](C)[C@H](NC(=O)OC)C(=O)N1CCC[C@H]1c1nc2ccc(-c3ccc4cc(-c5cnc([C@@H]6CCCN6C(=O)[C@@H](NC(=O)OC)[C@@H](C)OC)[nH]5)ccc4c3)cc2[nH]1", "note": "[Compound II]", "values": [
      {"measurement": "EC50", "setting": "[1]", "value": 0.07, "unit": "nM"},
      {"measurement": "EC50", "setting": "[2]", "value": 0.01, "unit": "nM"},
      {"measurement": "EC50", "setting": "[3]", "value": 0.11, "unit": "nM"},
      {"measurement": "EC50", "setting": "[4]", "value": 0.4, "unit": "nM"},
      {"measurement": "EC50", "setting": "[5]", "value": 0.04, "unit": "nM"},
      {"measurement": "EC50", "setting": "[6]", "value": 0.04, "unit": "nM"}
    ]},
    {"smiles": "COC(=O)N[C@H](C(=O)N1CCC[C@H]1c1ncc(-c2ccc3cc(-c4ccc5nc([C@@H]6CCCN6C(=O)[C@@H](NC(=O)OC)C(C)C)[nH]c5c4)ccc3c2)[nH]1)C(C)C", "note": "[Compound I]", "values": [
      {"measurement": "EC50", "setting": "[1]", "value": 0.135, "unit": "nM"},
      {"measurement": "EC50", "setting": "[2]", "value": 0.016, "unit": "nM"},
      {"measurement": "EC50", "setting": "[3]", "value": 0.139, "unit": "nM"},
      {"measurement": "EC50", "setting": "[4]", "value": 1.26, "unit": "nM"},
      {"measurement": "EC50", "setting": "[5]", "value": 0.052, "unit": "nM"},
      {"measurement": "EC50", "setting": "[6]", "value": 0.039, "unit": "nM"}
    ]},
    {"smiles": "CC[C@H](C)[C@H](NC(=O)OC)C(=O)N1CCC[C@H]1c1nc2ccc(-c3ccc4cc(-c5cnc([C@@H]6CCCN6C(=O)[C@@H](NC(=O)OC)[C@@H](C)OC)[nH]5)ccc4c3)cc2[nH]1", "note": "[amorphous Compound II]", "values": [
      {"measurement": "weight percentage change (water uptake) from 0-75% RH", "setting": "[7]", "value": 13.57, "unit": "%"}
    ]},
    {"smiles": "CC[C@H](C)[C@H](NC(=O)OC)C(=O)N1CCC[C@H]1c1nc2ccc(-c3ccc4cc(-c5cnc([C@@H]6CCCN6C(=O)[C@@H](NC(=O)OC)[C@@H](C)OC)[nH]5)ccc4c3)cc2[nH]1", "note": "[compound 4-3]", "values": [
      {"measurement": "pH (Filtrated)", "setting": "[8]; 0.1N HCl", "value": 1.09},
      {"measurement": "HPLC Solubility", "setting": "[8]; 0.1N HCl", "value": 2066, "unit": "µg/mL"},
      {"measurement": "pH (Filtrated)", "setting": "[8]; Water", "value": 8.83},
      {"measurement": "Visual Solubility (observation in words)", "setting": "[8]; Water", "value": "Turbid +"},
      {"measurement": "HPLC Solubility", "setting": "[8]; Water", "value": "<1", "unit": "µg/mL"},
      {"measurement": "pH (Filtrated)", "setting": "[8]; pH 2 medium", "value": 2.17},
      {"measurement": "HPLC Solubility", "setting": "[8]; pH 2 medium", "value": 2056, "unit": "µg/mL"},
      {"measurement": "pH (Filtrated)", "setting": "[8]; pH 3 medium", "value": 3.59},
      {"measurement": "Visual Solubility (observation in words)", "setting": "[8]; pH 3 medium", "value": "A few"},
      {"measurement": "HPLC Solubility", "setting": "[8]; pH 3 medium", "value": 1763, "unit": "µg/mL"},
      {"measurement": "pH (Filtrated)", "setting": "[8]; pH 4 medium", "value": 4.72},
      {"measurement": "Visual Solubility (observation in words)", "setting": "[8]; pH 4 medium", "value": "Turbid +"},
      {"measurement": "HPLC Solubility", "setting": "[8]; pH 4 medium", "value": 11, "unit": "µg/mL"},
      {"measurement": "pH (Filtrated)", "setting": "[8]; pH 5 medium", "value": 5.27},
      {"measurement": "HPLC Solubility", "setting": "[8]; pH 5 medium", "value": 1, "unit": "µg/mL"},
      {"measurement": "solubility at 24 h", "setting": "[8]; pH 6 medium, pH 6, aqueous buffer, pH 6 medium", "value": "< 1", "unit": "µg/mL"},
      {"measurement": "pH (Filtrated)", "setting": "[8]; pH 6 medium", "value": 6.04},
      {"measurement": "Visual Solubility (observation in words)", "setting": "[8]; pH 6 medium", "value": "Turbid +"},
      {"measurement": "solubility at 24 h", "setting": "[8]; pH 7 medium, pH 7, aqueous buffer, pH 7 medium", "value": "< 1", "unit": "µg/mL"},
      {"measurement": "pH (Filtrated)", "setting": "[8]; pH 7 medium", "value": 7.00},
      {"measurement": "Visual Solubility (observation in words)", "setting": "[8]; pH 7 medium", "value": "Turbid +"},
      {"measurement": "solubility at 24 h", "setting": "[8]; pH 8 medium, pH 8, aqueous buffer, pH 8 medium", "value": "< 1", "unit": "µg/mL"},
      {"measurement": "pH (Filtrated)", "setting": "[8]; pH 8 medium", "value": 7.91},
      {"measurement": "Visual Solubility (observation in words)", "setting": "[8]; pH 8 medium", "value": "Turbid +"}
    ]}
  ]
}
